These results are taken from patent US20220313651A1, “INHIBITORS OF ZIKA VIRUS INFECTION” (priority 2019, published 2022).

One assay has as its target T1, ZIKV NS2B-NS3 protein (Zika virus, UniProt Q32ZE1).
T1 construct: 49-97) and NS2 protein (residues 1-185) through a covalent; made in house; host or cells: E. coli
Briefly: SPR binding to ZIKV NS2B-NS3 protein. To be noted: 1:1 binding model, read-out: Binding affinity (KD) to ZIKV NS2B-NS3 protein. For orientation: SPR reads the build-up and loss of mass on a sensor chip optically.

The test system of assay [1] is ZIKV human strain R116265. Briefly: ZIKV vertical transmission in pregnant Ifnar1-/- mice. It is filed as in vivo. To be noted: 20 mg/kg i.p. The procedure:
Pregnant mice (at embryonic day (E) 12-14) were i.p. treated with ST087010 (20 mg/kg) or DMSO (control) 12 h before and 6, 24 and 48 after infection with ZIKV human strain R116265 (10^3 PFU/mouse). Viral titers were detected, by plaque assay, in sera (FIG. 9A), placenta (FIG. 9B), fetal brain (FIG. 9C), and amniotic fluid (FIG. 9D) at 5 days post infection (dpi). The data are expressed as mean±s.e.m. of mice in each group (n=5), and significant differences among different groups are shown. The detection limit is 25 PFU/ml (for sera and amniotic fluid), or 25 PFU/g (for placenta and fetal brain). Representative images of morphology of mouse uteri and fetuses at 5 dpi are shown. FIG. 9E depicts E17-19 uteri from pregnant mice challenged at E12-14. Fetal morphology (FIG. 9F) and fetal size (FIG. 9G) were detected. ZIKV or caspase-3 signals were measured in placentas by immunofluorescence staining (FIG. 9H). ZIKV and caspase-3 were stained with anti-ZIKV and anti-active caspase-3 antibodies, respectively. Nuclei were stained with DAPI. Representative images of immunofluorescence staining are shown. Magnification, 63×, and scale bar 10 μm.
ST087010 was evaluated for protection against ZIKV-caused fetal damage and death in pregnant Ifnar1^−/− mice. Briefly, groups of 5 pregnant mice (10- to 12-weeks old, E12-14) were injected intraperitoneally with ST087010 (20 mg/kg of body weight), or DMSO (control) 12 h before and 6, 24 and 48 h after i.p. infection with ZIKV (human strain R116265, 10^3 PFU). Five days post-infection, mice were sacrificed; viral titers were determined using plaque assay in sera, placenta, fetal brain and amniotic fluid, and uteri and fetuses were evaluated for morphological and size changes. Placenta was also assessed for apoptosis and viral replication by immunofluorescence staining.
Immunofluorescence staining was carried out to detect ZIKV and caspase-3 signals in ZIKV-infected mouse tissues. […] The slides were analyzed using a confocal microscope (Zeiss LSM 880) and ZEN software, and fluorescent signals were quantified by ImageJ software. […]

Procedure for ZIKV NS2B-NS3 protein: The interactions between the Z-medicaments and ZIKV full-length E or NS2B-NS3 protease were analyzed at 25° C. using the Biacore T200 system. Briefly, ZIKV E or NS2B-NS3 protein was immobilized on a sensor chip (CM5) using the Amine Coupling Kit. The disclosed Z-medicaments at various concentrations were subsequently injected as analytes, and PBS-P (20 mM phosphate buffer containing 2.7 mM KCl, 137 mM NaCl, and 0.05% surfactant P20, pH 7.4) was used as the running buffer. The data were analyzed using Biacore evaluation software (T200 version 1.0), and the curve was fitted with a 1:1 binding model.
Briefly, ZIKV EDIII protein or NS2B-NS3 protein were immobilized on a sensor chip (CM5) using Amine Coupling Kit. […] Biacore BK evaluation software (version 1.1) was applied to analyze the data, and the curve was fitted with a 1:1 binding model.

Consider `Cc1cc2c(C(C)C)c(O)c(O)c(/C=N/n3c(=O)[nH][nH]c3=O)c2c(O)c1-c1c(C)cc2c(C(C)C)c(O)c(O)c(/C=N/n3c(=O)[nH][nH]c3=O)c2c1O` [ST087010], for which the dissociation constant (Kd) (usually a measure of binding affinity in units of concentration) on ZIKV NS2B-NS3 protein worked out at 19.9 µM. The “ZIKV+ or caspase-3 signals in placental tissues” value in assay [1] (ZIKV R116265, immunofluorescence, vs DMSO) was “undetectable or diminished”. For the same molecule, the “Condition of fetuses and uteri morphology” value in assay [1] (pregnant mice E12-14, ZIKV R116265 10^3 PFU, 5 dpi) is recorded as “all in good condition”. Moreover, the “Viral titers in sera, placenta, fetal brain and amniotic fluid” value in assay [1] (pregnant mice E12-14, ZIKV R116265 10^3 PFU, 5 dpi, vs DMSO) was “significantly reduced”.
